Columns and labels:
[1] = test system: atopic dermatitis; details: cited from earlier work
[2] = 15, 45, and 120 mg/kg/day orally, 39 weeks; cited from earlier work
[3] = test system: atopic dermatitis; details: 0.2%, 0.6% and 1.0% creams; 260 patients; cited from earlier work
[4] = test system: atopic dermatitis; experiment: Topical treatment of atopic dermatitis lesions in individual subjects (case reports, Examples 11-15); type: in vivo, human; details: topical application to atopic dermatitis lesion
From the text: The product was applied on an irregular basis with the longest exposure time at night.
A subject with an atopic dermatitis lesion on the palm of the right hand is presently being treated with the invention containing betamethasone and clemastine hydrogen fumarate.

[5] = 192 adults with moderate to severe AD

Molecule	days on which corticosteroid medication for flares was used ([1]; 24-week treatment period)	median time to first flare [1, 5] [days]	patients who did not experience a flare [1, 5] [%]	finding associated with oral dosing [2]	efficacy vs vehicle [3]	outcome of the lesion [4]
CC[C@@H]1/C=C(\C)C[C@H](C)C[C@H](OC)[C@H]2O[C@@](O)(C(=O)C(=O)N3CCCC[C@H]3C(=O)O[C@H](/C(C)=C/[C@@H]3CC[C@H](Cl)[C@H](OC)C3)[C@H](C)[C@@H](O)CC1=O)[C@H](C)C[C@@H]2OC [pimecrolimus]	14.2 % of the days	144	44.8	immunosuppression-related lymphoproliferative disorders	significantly more effective than vehicle	–
betamethasone propionate	–	–	–	–	–	no improvement

Reference: patent publication US20100008868A1, “SUSTAINED REMISSION OF ATOPIC DERMATITIS” (priority 2007, published 2010)
